Laboratory results as given in patent publication US20150050371A1, “Extract Formulations of Rhodamnia Cinerea And Uses Thereof” (BIOTROPICS MALAYSIA BERHAD, priority 2012, published 2015).
Marks after values point to notes of the source that are not given here.

System: normal male Wistar rats
Test: Acute Starch Tolerance Test (STT), glycemia after oral wheat starch
Assay type: in vivo, rat
Details: 5 mg/kg oral
Method: An acute Starch Tolerance Test (STT) was performed by the administration by oral gavage of a 7.5% purified wheat starch solution at 1.5 g/kg of body weight to normal male Wistar rats. The effect of a concomitantly administered hot water extract formulation from Rhodamnia cinerea leaves (BTP-00167-14; ref. example 1.2) on the glycemic index was measured at different doses orally administered (50 and 200 mg/kg of body weight). The extract formulation BTP-00167-14 was administered by oral route concomitantly with wheat starch solutions. Glycemia was measured before and 15, 30, 60, 90, and 120 min after mixture administration. The positive control group received acarbose at 5 mg/kg of body weight together with the starch. The actual volume administered to each rat was calculated and adjusted based on the most recent body weight of each animal. STT onset was between 12:00 p.m. (noon) and 1:00 p.m. on animals fasted overnight. Blood samples (one drop) were collected via the tail vein for glucose determination using a hand-held glucometer before and 15, 30, 60, 90, and 120 min after starch administration. Seven-week old rats weighing around 135 g were used for the experiment. One day before the test, rats were randomly assigned to the different experimental groups. Delta glycemia values were calculated by subtraction of the pre-STT glycemia values (Time 0). Values represent average (i.e. mean) values.

`C[C@H]1O[C@H](O[C@H]2[C@H](O)[C@@H](O)[C@@H](O[C@H]3[C@H](O)[C@@H](O)C(O)O[C@@H]3CO)O[C@@H]2CO)[C@H](O)[C@@H](O)[C@@H]1N[C@H]1C=C(CO)[C@@H](O)[C@H](O)[C@H]1O` (stereo partly drawn) [Acrabose, acarbose] was tested, and the “Glycemia 15 min” value (15 min after starch) was 72.4** mg/dL, the “Glycemia 30 min” value (30 min after starch) was 83.7** mg/dL and the “Glycemia 60 min” value (60 min after starch) was 71.7** mg/dL. For the same compound, the “Glycemia 90 min” value (90 min after starch) was 66.0** mg/dL, the “Glycemia 120 min” value (120 min after starch) was 61.9** mg/dL and the “Glycemia 0 min” value (before administration) was 55.0 mg/dL.
